Reference: US12606541B2, “PPARg modulators and methods of use” (Eisai R&D Management Co., Ltd., priority 2020, dated 2026)
Where two headings read alike, the source gives them in different places.

What was measured:
UM-UC-9 engineered cells = experiment: Cell proliferation / short-term viability assay, CellTiter-Glo 144 h; format: cell-based, human; settings: read-out: CTGlo 144 h UMUC9.5, G150
Outline: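 UM-UC-9 engineered assay-ready cells seeded at 500 cells/well in high-glucose DMEM/10% FBS, treated from dose-response plates, grown at 37° C, 5% CO2. CellTiter-Glo 2.0 luminescence read on day 7, with a day-0 pretreatment plate as T0 reference and DMSO wells as negative control.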

His6-TEV-PPARγ-(234-505) = target: T1, His6-TEV-PPARγ-(234-505) (Homo sapiens, UniProt P37231); experiment: TR-FRET Assay to Measure Co-R Peptide Recruitment to PPARγ; format: biochemical; settings: Co-R peptide (SMRT-ID2) recruitment; top final concentration 20 μM; read-out: TR-FRET i-Ag; AC50
T1 construct: The His6-TEV-PPARγ-(234-505) protein for assay was expressed and purified; TEV cleavage site (N); made in house
T1 sequence (P37231 234-505): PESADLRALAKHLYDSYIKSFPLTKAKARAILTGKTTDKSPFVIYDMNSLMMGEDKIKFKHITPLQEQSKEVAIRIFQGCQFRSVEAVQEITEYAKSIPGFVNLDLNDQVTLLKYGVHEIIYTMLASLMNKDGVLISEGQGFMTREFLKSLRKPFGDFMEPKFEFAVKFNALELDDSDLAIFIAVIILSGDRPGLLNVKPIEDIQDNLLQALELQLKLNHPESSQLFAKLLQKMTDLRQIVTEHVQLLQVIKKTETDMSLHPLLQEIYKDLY
Outline: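 His-tagged PPARγ (or controls) was preincubated with compound for 20 minutes at room temperature, then 5 nM anti-His terbium antibody and 200 nM FITC-labeled SMRT-ID2 corepressor peptide (final) were added for a further hour. TR-FRET signal was normalized to percent response using 500 nM T0070907 and DMSO controls.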

Row | Compound | IC50 (UM-UC-9 engineered cells; Homo sapiens, UM-UC-9, 144 h) | AC50 (His6-TEV-PPARγ-(234-505)) | IC50 (UM-UC-9 engineered cells)
1 | COc1cc(-c2cc(C(=O)N3CC[C@H](C(=O)NCc4ncc(N5CCN(C)CC5)cc4Cl)CC34CC4)n[nH]2)c(F)cn1 [Example 521, (S)—N-((3-chloro-5-(4-methylpiperazin-1-yl)pyridin-2-yl)methyl)-4-(5-(5-fluoro-2-methoxypyridin-4-yl)-1H-pyrazole-3-carbonyl)-4-azaspiro[2.5]octane-7-carboxamide] | 0.0198 µM | 0.0018 µM | 
2 | COc1cc(-c2cc(C(=O)N3CC[C@H](C(=O)NCc4ccc5c(c4)B(O)OC5(C)C)CC34CC4)[nH]n2)c(F)cn1 [Example 522, (S)-4-(3-(5-fluoro-2-methoxypyridin-4-yl)-1H-pyrazole-5-carbonyl)-N-((1-hydroxy-3,3-dimethyl-1,3-dihydrobenzo[c][1,2]oxaborol-6-yl)methyl)-4-azaspiro[2.5]octane-7-carboxamide] | 0.0143 µM | 0.0014 µM | 
3 | COc1cc(-c2cc(C(=O)N3CC[C@H](C(=O)Nc4ccc5c(c4)COB5O)CC34CC4)[nH]n2)c(F)cn1 [Example 523, (S)-4-(3-(5-fluoro-2-methoxypyridin-4-yl)-1H-pyrazole-5-carbonyl)-N-(1-hydroxy-1,3-dihydrobenzo[c][1,2]oxaborol-5-yl)-4-azaspiro[2.5]octane-7-carboxamide] | 0.0543 µM | 0.0053 µM | 
4 | COc1cc(-c2cc(C(=O)N3CC[C@H](C(=O)NCc4ccncc4C(F)(F)F)CC34CC4)[nH]n2)c(F)cn1 [Example 525, (S)-4-(3-(5-fluoro-2-methoxypyridin-4-yl)-1H-pyrazole-5-carbonyl)-N-((3-(trifluoromethyl)pyridin-4-yl)methyl)-4-azaspiro[2.5]octane-7-carboxamide] | 0.019 µM | 0.007 µM | 
5 | COc1cc(-c2cc(C(=O)N3CC[C@H](C(=O)NCc4c(C(F)(F)F)nn(C)c4Cl)CC34CC4)[nH]n2)c(F)cn1 [Example 526, (S)—N-((5-chloro-1-methyl-3-(trifluoromethyl)-1H-pyrazol-4-yl)methyl)-4-(3-(5-fluoro-2-methoxypyridin-4-yl)-1H-pyrazole-5-carbonyl)-4-azaspiro[2.5]octane-7-carboxamide] | 0.0071 µM | 0.0037 µM | 
6 | (1R,3S,5S)-8-[5-(5-fluoro-2-methoxypyridin-4-yl)-1H-pyrazole-3-carbonyl]-N-[(1r,4r)-4-(2-methoxyethoxy)-4-(trifluoromethyl)cyclohexyl]-8-azabicyclo[3.2.1]octane-3-carboxamide and (1R,3S,5S)-8-[5-(5-fluoro-2-methoxypyridin-4-yl)-1H-pyrazole-3-carbonyl]-N-[(1s,4s)-4-(2-methoxyethoxy)-4-(trifluoromethyl)cyclohexyl]-8-azabicyclo[3.2.1]octane-3-carboxamide [Example 304] |  | 0.0444 µM | 0.201 µM
7 | (1R,3s,5S)-8-(5-(5-fluoro-2-methoxypyridin-4-yl)-1H-pyrazole-3-carbonyl)-N—((R)-1-(3-(trifluoromethyl)-1,2,4-oxadiazol-5-yl)ethyl)-8-azabicyclo[3.2.1]octane-3-carboxamide and (1R,3s,5S)-8-(5-(5-fluoro-2-methoxypyridin-4-yl)-1H-pyrazole-3-carbonyl)-N—(S)-1-(3-(trifluoromethyl)-1,2,4-oxadiazol-5-yl)ethyl)-8-azabicyclo[3.2.1]octane-3-carboxamide [Example 290] |  | 0.4 µM | 0.833 µM
8 | (1R,3s,5S)—N-(3-chlorobenzyl)-8-(5-(5-fluoro-2-methoxypyridin-4-yl)-1H-pyrazole-3-carbonyl)-8-azabicyclo[3.2.1]octane-3-carboxamide and (1R,3r,5S)—N-(3-chlorobenzyl)-8-(5-(5-fluoro-2-methoxypyridin-4-yl)-1H-pyrazole-3-carbonyl)-8-azabicyclo[3.2.1]octane-3-carboxamide [Example 160] |  | 0.0116 µM | 0.0206 µM
9 | (1R,3s,5S)—N-((1r,4R)-4-ethoxy-4-(trifluoromethyl)cyclohexyl)-8-(5-(5-fluoro-2-methoxypyridin-4-yl)-1H-pyrazole-3-carbonyl)-8-azabicyclo[3.2.1]octane-3-carboxamide and (1R,3s,5S)—N-((1s,4S)-4-ethoxy-4-(trifluoromethyl)cyclohexyl)-8-(5-(5-fluoro-2-methoxypyridin-4-yl)-1H-pyrazole-3-carbonyl)-8-azabicyclo[3.2.1]octane-3-carboxamide [Example 303] |  | 0.0073 µM | 0.0415 µM
10 | (2S,4R)-1-(5-(5-fluoro-2-methoxypyridin-4-yl)-1H-pyrazole-3-carbonyl)-N-((1r,4R)-4-hydroxy-4-(trifluoromethyl)cyclohexyl)-2-(trifluoromethyl)piperidine-4-carboxamide and (2S,4S)-1-(5-(5-fluoro-2-methoxypyridin-4-yl)-1H-pyrazole-3-carbonyl)-N-((1r,4S)-4-hydroxy-4-(trifluoromethyl)cyclohexyl)-2-(trifluoromethyl)piperidine-4-carboxamide [Example 367] |  | 0.022 µM | 0.012 µM
11 | (R)-4-(5-(5-fluoro-2-methoxy-3-methylpyridin-4-yl)-1H-pyrazole-3-carbonyl)-N-((1r,4R)-4-hydroxy-4-(trifluoromethyl)cyclohexyl)-4-azaspiro[2.5]octane-7-carboxamide and (S)-4-(5-(5-fluoro-2-methoxy-3-methylpyridin-4-yl)-1H-pyrazole-3-carbonyl)-N-((1r,4S)-4-hydroxy-4-(trifluoromethyl)cyclohexyl)-4-azaspiro[2.5]octane-7-carboxamide [Example 493] |  | 0.0126 µM | 0.0886 µM
12 | (S)-1-(5-(5-fluoro-2-methoxypyridin-4-yl)-1H-pyrazole-3-carbonyl)-N-((1r,4S)-4-hydroxy-4-(trifluoromethyl)cyclohexyl)-2,2-dimethylpiperidine-4-carboxamide and (R)-1-(5-(5-fluoro-2-methoxypyridin-4-yl)-1H-pyrazole-3-carbonyl)-N-((1r,4R)-4-hydroxy-4-(trifluoromethyl)cyclohexyl)-2,2-dimethylpiperidine-4-carboxamide [Example 407] |  | 0.0303 µM | 0.023 µM
13 | (S)-4-(5-(2-chloro-5-fluoropyridin-4-yl)-1H-pyrazole-3-carbonyl)-N-((1r,4S)-4-hydroxy-4-(trifluoromethyl)cyclohexyl)-4-azaspiro[2.5]octane-7-carboxamide and (R)-4-(5-(2-chloro-5-fluoropyridin-4-yl)-1H-pyrazole-3-carbonyl)-N-((1r,4R)-4-hydroxy-4-(trifluoromethyl)cyclohexyl)-4-azaspiro[2.5]octane-7-carboxamide [Example 529] |  | 0.0106 µM | 0.0342 µM
14 | (S)-4-(5-(5-fluoro-2-methoxypyridin-4-yl)-1H-pyrazole-3-carbonyl)-N-((1r,4S)-4-hydroxy-4-(perfluoroethyl)cyclohexyl)-4-azaspiro[2.5]octane-7-carboxamide and (S)-4-(5-(5-fluoro-2-methoxypyridin-4-yl)-1H-pyrazole-3-carbonyl)-N-((1s,4R)-4-hydroxy-4-(perfluoroethyl)cyclohexyl)-4-azaspiro[2.5]octane-7-carboxamide [Example 373] |  | 0.0117 µM | 0.003 µM
15 | (S)-4-(5-(5-fluoro-2-methoxypyridin-4-yl)-1H-pyrazole-3-carbonyl)-N-((1s,4R)-4-(hydroxymethyl)-4-(trifluoromethyl)cyclohexyl)-4-azaspiro[2.5]octane-7-carboxamide and (S)-4-(5-(5-fluoro-2-methoxypyridin-4-yl)-1H-pyrazole-3-carbonyl)-N-((1r,4S)-4-(hydroxymethyl)-4-(trifluoromethyl)cyclohexyl)-4-azaspiro[2.5]octane-7-carboxamide [Example 408] |  | 0.0063 µM | 0.0072 µM
16 | (S)-4-(5-(5-fluoro-2-methoxypyridin-4-yl)-1H-pyrazole-3-carbonyl)-N—(((S)-3-(trifluoromethyl)-5,6-dihydro-8H-[1,2,4]triazolo[3,4-c][1,4]oxazin-6-yl)methyl)-4-azaspiro[2.5]octane-7-carboxamide and (S)-4-(5-(5-fluoro-2-methoxypyridin-4-yl)-1H-pyrazole-3-carbonyl)-N—(((R)-3-(trifluoromethyl)-5,6-dihydro-8H-[1,2,4]triazolo[3,4-c][1,4]oxazin-6-yl)methyl)-4-azaspiro[2.5]octane-7-carboxamide [Example 357] |  | 0.0451 µM | 2.19 µM
17 | (S)-4-(5-(5-fluoro-2-methoxypyridin-4-yl)-1H-pyrazole-3-carbonyl)-N—((S)-1-(oxetan-3-yl)piperidin-3-yl)-4-azaspiro[2.5]octane-7-carboxamide and (S)-4-(5-(5-fluoro-2-methoxypyridin-4-yl)-1H-pyrazole-3-carbonyl)-N—((R)-1-(oxetan-3-yl)piperidin-3-yl)-4-azaspiro[2.5]octane-7-carboxamide [Example 421] |  | 0.181 µM | 0.365 µM
